Reference: ChEMBL document CHEMBL1131565, “Aminopyrimidines with high affinity for both serotonin and dopamine receptors” (J Med Chem, 1998)

Key:
[1] = molecular target: 5-hydroxytryptamine receptor 1A (Rattus norvegicus) (UniProt P19327); test: Intrinsic agonist activity at 5-HT1A receptors was measured in vivo by measuring changes in 5-HT levels after administration of compound by observing accumulation of the 5-HT […] 5-hydroxytryptophan (5-HTP) after administration of a 10 mg/k g ip
[2] = molecular target: T1, 5-hydroxytryptamine receptor 1A (Rattus norvegicus, UniProt P19327); test: The binding affinity by measuring its ability to displace [3H]8-OH-DPAT radioligand in 5-hydroxytryptamine 1A receptor on rat hippocampal preparation; type: tissue-based, Hippocampus
T1 sequence (P19327 whole entry): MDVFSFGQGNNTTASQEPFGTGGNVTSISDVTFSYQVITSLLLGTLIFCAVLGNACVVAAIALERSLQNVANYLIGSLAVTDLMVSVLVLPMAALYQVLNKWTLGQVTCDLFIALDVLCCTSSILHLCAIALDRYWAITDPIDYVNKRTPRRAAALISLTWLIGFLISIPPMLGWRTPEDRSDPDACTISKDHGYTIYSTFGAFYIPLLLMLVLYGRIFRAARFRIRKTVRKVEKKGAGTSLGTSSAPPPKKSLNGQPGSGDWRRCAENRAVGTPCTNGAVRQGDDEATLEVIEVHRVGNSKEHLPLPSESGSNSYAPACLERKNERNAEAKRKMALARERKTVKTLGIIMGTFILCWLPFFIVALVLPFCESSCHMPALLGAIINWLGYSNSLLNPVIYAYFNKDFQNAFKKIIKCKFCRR

D(3) dopamine receptor = D(3) dopamine receptor (Homo sapiens, UniProt P35462); test: biochemical
Description: Binding affinity determined by measuring displacement of [3H]spiperone from cloned Human Dopamine receptor D3 in CHO-K1 cells

D(2) dopamine receptor [3] = molecular target: T2, D(2) dopamine receptor (Homo sapiens, UniProt P14416); test: Percentage intrinsic activity measured at DA D2 receptor by measuring its ability to […] [3H]-thymidine uptake in CHO-K1 cells transfected with the Dopamine receptor D2; type: cell-based
Rattus norvegicus [4] = test: In vivo DA D2 activity determined by measuring effects on DA synthesis by observing the changes in accumulation of (DOPA) after administration of a 10 mg/kg ip; type: functional; details: route intraperitoneal
D(2) dopamine receptor [5] = molecular target: T2, D(2) dopamine receptor; test: The in vitro intrinsic activity was measured at DA D2 receptor by measuring its ability to increase [3H]thymidine uptake in CHO-K1 cells transfected with the Dopamine receptor D2; type: cell-based
D(2) dopamine receptor [6] = molecular target: T2, D(2) dopamine receptor; test: biochemical
Description: Binding affinity determined by measuring its ability to displace [3H]N-0437 radioligand in CHO-K1 cells on Cloned Human Dopamine receptor D2

Rattus norvegicus [7] = test: In vivo DA d2 activity determined by measuring effects on DA synthesis by observing the changes in accumulation of (DOPA) after administration of a 10 mg/kg ip; type: functional; details: route intraperitoneal
Mus musculus = test: The inhibited exploratory locomotor activity of compound in mice after ip administration; type: functional
Rattus norvegicus [8] = test: The % decrease of rat striatal 5-HIAA overflow at the dose of 10 mg/kg through ip.; type: functional
Rattus norvegicus [9] = test: The % decrease of rat striatal dopamine overflow at the dose of 10 mg/kg through ip.; type: functional
[10] = The inhibition of Sidman avoidance responding of compound in squirrel monkeys after oral administration
Rattus norvegicus [11] = test: The inhibited exploratory locomotor activity of compound in rat after oral administration; type: functional

T2 sequence (P14416 whole entry): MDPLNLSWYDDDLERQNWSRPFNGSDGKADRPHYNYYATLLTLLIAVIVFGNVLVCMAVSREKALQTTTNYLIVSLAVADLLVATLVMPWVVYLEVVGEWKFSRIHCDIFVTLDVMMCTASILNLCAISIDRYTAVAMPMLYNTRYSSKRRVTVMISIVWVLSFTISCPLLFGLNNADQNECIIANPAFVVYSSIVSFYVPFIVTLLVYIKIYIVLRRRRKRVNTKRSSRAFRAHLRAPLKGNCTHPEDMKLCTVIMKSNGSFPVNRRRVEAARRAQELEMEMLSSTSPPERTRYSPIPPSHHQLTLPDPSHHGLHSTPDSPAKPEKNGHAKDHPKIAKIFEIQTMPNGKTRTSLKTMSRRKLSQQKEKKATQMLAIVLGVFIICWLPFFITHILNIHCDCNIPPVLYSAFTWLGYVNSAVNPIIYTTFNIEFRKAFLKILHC
Sequence of D(3) dopamine receptor (P35462 whole entry): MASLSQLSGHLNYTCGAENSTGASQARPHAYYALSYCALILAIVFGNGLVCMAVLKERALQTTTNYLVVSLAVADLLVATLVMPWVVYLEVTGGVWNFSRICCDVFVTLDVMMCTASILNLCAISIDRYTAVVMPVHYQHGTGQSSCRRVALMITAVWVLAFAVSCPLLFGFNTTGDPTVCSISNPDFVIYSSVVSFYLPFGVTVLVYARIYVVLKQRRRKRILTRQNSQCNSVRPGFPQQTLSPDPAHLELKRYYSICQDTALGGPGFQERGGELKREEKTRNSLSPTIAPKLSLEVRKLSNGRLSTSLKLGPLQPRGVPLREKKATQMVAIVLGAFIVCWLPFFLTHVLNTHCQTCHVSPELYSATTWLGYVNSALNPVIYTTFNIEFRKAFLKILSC

SMILES	Ki [2]	Ki (D(3) dopamine receptor)	Ki (D(2) dopamine receptor [6])	also measured
COc1ccccc1N1CCN(CC[C@H]2CC[C@H](Nc3ncccn3)CC2)CC1	0.5 nM	11 nM	3 nM	Control [1]: 128%; Intrinsic activity (D(2) dopamine receptor [3]): 8%; Control (Rattus norvegicus [4]): 173%; IC50 (D(2) dopamine receptor [5]): 9.9 nM
c1ccc(N2CCN(C3CCC(Nc4ncccn4)CC3)CC2)cc1 (stereo in doubt; 20)	83 nM	610 nM	320 nM	–
c1cnc(N[C@H]2CC[C@H](CCN3CCN(c4nccs4)CC3)CC2)nc1	10 nM	–	46 nM	–
c1cnc(N[C@H]2CC[C@H](CCN3CCN(c4cccnc4)CC3)CC2)nc1	9.5 nM	4.7 nM	25 nM	–
FC(F)(F)c1cccc(N2CCN(CC[C@H]3CC[C@H](Nc4ncccn4)CC3)CC2)c1	13 nM	32 nM	6 nM	–
Clc1cccc(N2CCN(CC[C@H]3CC[C@H](Nc4ncccn4)CC3)CC2)c1Cl	76 nM	5 nM	11 nM	–
c1ccc(N2CCN(CC[C@H]3CC[C@H](Nc4ncccn4)CC3)CC2)nc1	2.2 nM	26 nM	–	Control (Rattus norvegicus [7]): 159%; Intrinsic activity (D(2) dopamine receptor [3]): 41%
c1ccc(N2CCN(CC[C@H]3CC[C@H](Nc4ncnc5ccccc45)CC3)CC2)cc1	74 nM	0.02 nM	3.2 nM	–
CN(CCc1ccccc1)CC[C@H]1CC[C@H](Nc2ncccn2)CC1	91 nM	–	39 nM	–
O=C(N[C@H]1CC[C@H](CCN2CCN(c3ccccc3)CC2)CC1)C1CCCCC1	5300 nM	–	–	–
C1=C(c2ccccc2)CCN(CC[C@H]2CC[C@H](Nc3ncccn3)CC2)C1	3.9 nM	3.7 nM	4.7 nM	–
O=C(N[C@H]1CC[C@H](CCN2CCN(c3ccccc3)CC2)CC1)c1cccs1	57 nM	–	–	–
CCCN(CCC)CC[C@H]1CC[C@H](Nc2ncccn2)CC1	–	800 nM	2400 nM	–
c1ccc(N2CCN(C3CCC(Nc4ncccn4)CC3)CC2)cc1 (stereo in doubt; 19)	470 nM	550 nM	160 nM	–

The next lines start with results.

Ki [2]	Ki (D(3) dopamine receptor)	Ki (D(2) dopamine receptor [6])	SMILES	also measured
8.6 nM	590 nM	240 nM	c1cnc(N[C@H]2CC[C@H](CCN3CCN(c4ncccn4)CC3)CC2)nc1	–
730 nM	2300 nM	4800 nM	c1cnc(N[C@H]2CC[C@H](CCN3CCN(c4ccncc4)CC3)CC2)nc1	–
4.5 nM	48 nM	8.5 nM	Fc1ccc(N2CCN(CC[C@H]3CC[C@H](Nc4ncccn4)CC3)CC2)cc1	Control [1]: 143%; Control (Rattus norvegicus [7]): 142%; Intrinsic activity (D(2) dopamine receptor [3]): 5%; IC50 (D(2) dopamine receptor [5]): 79 nM
16 nM	54 nM	7.4 nM	c1ccc(N2CCN(CCC[C@H]3CC[C@H](Nc4ncccn4)CC3)CC2)cc1	–
29 nM	210 nM	180 nM	c1cnc(N[C@H]2CC[C@H](CCN3CCN(c4cnccn4)CC3)CC2)nc1	–
41 nM	89 nM	5.7 nM	c1ccc(N2CCN(C[C@H]3CC[C@H](Nc4ncccn4)CC3)CC2)cc1	–
4.7 nM	24 nM	4.8 nM	CN(c1ncccn1)[C@H]1CC[C@H](CCN2CCN(c3ccccc3)CC2)CC1	–
3.5 nM	13.7 nM	5.2 nM	c1ccc(N2CCN(CC[C@H]3CC[C@H](Nc4ncccn4)CC3)CC2)cc1	ED50 (Mus musculus): 0.4 mg/kg; Decrease (Rattus norvegicus [8]): 42%; Decrease (Rattus norvegicus [9]): 50%; Intrinsic activity (D(2) dopamine receptor [3]): 60%; Control (Rattus norvegicus [4]): 67%; EC50 (D(2) dopamine receptor [5]): 29 nM; ED50 [10]: 0.28 mg/kg; ED50 (Rattus norvegicus [11]): 4.6 mg/kg
44 nM	40 nM	110 nM	c1cnc(N[C@H]2CC[C@H](CCN3CCc4ccccc4C3)CC2)nc1	–
160 nM	52 nM	390 nM	COc1ccc(N2CCN(CC[C@H]3CC[C@H](Nc4ncccn4)CC3)CC2)cc1	–
–	29 nM	–	c1ccc(N2CCN(CC[C@H]3CC[C@@H](Nc4ncccn4)CC3)CC2)cc1	–
